Measured values published in patent publication US12023317B2, “Composition for ameliorating psoriasis comprising cimicifugolide a as active ingredient” (KOREA INSTITUTE OF SCIENCE AND TECHNOLOGY, priority 2021, dated 2024).

System: psoriasis
Assay: psoriasis-induced group: skin moisture, damaged area, skin morphology, inflammation
Type: in vivo
Settings: when cimicifugolide A is administered

`CC(C)=CC1OC(=O)/C(=C\CO)C1O` (stereo not shown) [cimicifugolide A, (Z)-4-Hydroxy-3-(2-hydroxyethylidene)-5-(2-methylprop-1-en-1-yl)dihydrofuran-2(3H)-one] was tested, and the inflammation expression was “inhibition”, the moisture content was “increased” and the moisture loss was “decreased”. The skin morphological changes was “inhibition”.
